Assay results: patent US4808572A, “α-Hydroxy thioethers” (Ciba-Geigy Corporation, priority 1985, dated 1989)

How the values were obtained:
[1] = molecular target: phospholipase A2 from human leucocytes; experiment: In vitro inhibition of phospholipase A2 obtained from human leucocytes; format: biochemical; conditions: enzyme from human neutrophilic polymorphonuclear leucocytes, 14C-oleic acid labelled E. coli phospholipids, 37°, 1 hour, pH 7
Description: Human neutrophilic polymorphonuclear leucocytes are isolated from "buffy coats" by multistage fractional sedimentation and are deep-frozen. Phospholipase A2 is extracted from the cell suspension by homogenisation with the addition of ice-cold 0.36N H2 SO4 in 2N NaCl, and the supernatant obtained after centrifugation at 10,000×g is dialysed against sodium acetate buffer pH 4.5.
In order to determine the enzyme activity, enzyme (10-30 μg protein) is incubated at 37° for 1 hour in 0.1M tris/HCl buffer pH 7 with the addition of 1 mM CaCl2 and substrate consisting of phospholipids (2 μM) of Escherichia coli that have been radioactively labelled with ^14 C-oleic acid by means of biosynthesis. The reaction is stopped by the addition of Dole reagent (isopropanol/heptane/1N H2 SO4 40:10:1, v/v) and the ^14 C-oleic acid selectively released by phospholipase A2 is extracted. Substrate also extracted at the same time is completely removed by filtering the extract through a column of silica gel. The ^14 C-oleic acid in the eluate is determined by radiometry.
In order to ascertain the inhibitory action of test substances on phospholipase A2, these substances are added in the form of solutions in water, dimethyl sulphoxide (final concentration in the mixture up to 5% v/v) or ethanol (final concentration in the mixture up to 2.5% v/v) to the incubation mixture. […]

[2] = molecular target: phospholipase C from human thrombocytes; experiment: In vitro inhibition of phospholipase C obtained from human thrombocytes; format: biochemical; conditions: enzyme from human thrombocytes, phosphatidyl-[14C]-inositol, 37°, 5 minutes, pH 6
Description: Human thrombocytes are obtained from "buffy coats" by fractional centrifugation and then deep frozen.
To ascertain the enzyme activity, enzyme (20-100 μg protein) is incubated at 37° for 5 minutes in 0.025M tris/malate buffer pH 6 with the addition of 0.2 mM CaCl2 and 0.02 mM radioactively labelled substrate, phosphatidyl-[^14 C]-inositol. The reaction is stopped by extraction by shaking with CHCl3 /CH3 OH 2:1 (v/v). In the course of this operation unconsumed substrate is extracted into the organic phase, whilst the reaction product, ^14 C-inositol phosphate, remains in the aqueous phase and can be measured by radiometry of an aliquot.
In order to ascertain the inhibitory action of test substances on phospholipase C, these substances are added in the form of solutions in water, dimethyl sulphoxide (final concentration in the mixture up to 5%, v/v) or ethanol (final concentration in the mixture up to 2.5%, v/v) to the incubation mixture. The strength of action of the test substances is expressed by the IC50, that is to say the concentration that causes a 50% inhibition of the control activity. The IC50 is ascertained on a graph by plotting the percentage inhibition on the ordinate against the log of the concentration (μM) on the abscissa.

CCN(CC)CCCC(C)Nc1c2ccc(Cl)cc2nc2ccc(OC)cc12 (centres unmarked) [mepacrine]
IC50 [1]: 1600 µM
IC50 [2]: 20 µM
